Values of other authors as cited in US6106863A, “Sustained-release metal valproate tablets” (priority 1996, dated 2000).

Tests used:
[1] = in vivo

## CCCC(CCC)C(=O)[O-].[Na+] [Sodium valproate]
other
  water solubility (in words): water-soluble
[1]
  biological half-life (in words): short biological half-life
  effective blood concentration: 50 to 100 µg/mL
